Format in all cases: cell-based
Assay [1] deals with MDA-MB-231 human mammary carcinoma cells. To be noted: MDA-MB-231, 0.1-1.0 μM SSTN peptide, 2 hr. The procedure:
(§1) FIGS. 5A-5F—Inhibition of MDA-MB-231 human mammary carcinoma cell attachment and spreading on VN by synstatin82-130. MDA-MB-231 human mammary carcinoma cells, which rely on the αvβ3 integrin for attachment and spreading on VN, were plated on 10 μg/ml VN for 2 hr in the absence of peptide (FIG. 5A) or in the presence of 0.1 (FIG. 5B), 0.3 (FIG. 5C) or 1 μM (FIG. 5D) synstatin82-130. The cells were fixed and stained as in FIG. 2.
FIG. 17—Human SSTN peptides inhibit αvβ3-mediated cell attachment and spreading on vitronectin. MDA-MB-231 human mammary carcinoma cells were allowed to attach and spread on either vitronectin (VN) or fibronectin (FN) during a 2 hr assay in the presence of 0, 0.1, 0.3, 0.5, 1.0 or 30 μM SSTN peptide. […] The two peptides tested are derived either from amino acids 88-121 (hSSTN 88-121) or 89-120 (hSSTN 89-120) of the human Sdc1 sequence. Adhesion to VN, but not FN, is mediated by the αvβ3 integrin on these cells and is disrupted by the human SSTN peptides.
(§2) Cell adhesion and spreading assays were performed with modification to the previous procedures (Lebakken and Rapraeger, 1996. Briefly, human plasma vitronectin or fibronectin at 10-30 μg/ml were applied to nitrocellulose-coated ten well slides (Erie Scientific) and incubated for 1-2 h at 37° C. Slides were blocked with 1.0% heat-denatured bovine serum albumin for a minimum of 30 min at 37° C. Cells were detached from the substratum using 5 mM EDTA in Tris-buffered saline and resuspended in HEPES-buffered culture medium containing 0.1% heat-denatured BSA. Cells were plated at a density of 15,000 cells per well and allowed to attach and spread for 2 h prior to fixation in 4% paraformaldehyde in CMF-PBS. For fluorescence microscopy, fixed cells were permeabilized in 0.2% Triton X-100, labeled with rhodamine-conjugated phalloidin and analyzed using fluorescence microscopy. For testing inhibition by recombinant mScd-1ED and synstatin82-130, cells were pre-incubated 10 min before plating in the presence of the inhibitor. […] LM609 was used as a specific block to αvβ3 and P1F6 was used as a specific blocker of αvβ5.
The inventors have tested the adhesion and spreading of MDA-MB-231 mammary carcinoma cells on VN in the presence or absence of synstatin82-130. These cells rely specifically on the active αvβ3 integrin for this adhesion (Beauvais et al., 2004). Recombinant Sdc1 ectodomain (SLED) has been shown by the inventors previously to block spreading of these cells with an IC50 of about 3-10 μM (Beauvais et al., 2004). […] Thus, synstatin82-130 is a specific and effective inhibitor of αvβ3 integrin activation.

For assay [2] the test system is unchanged. The experiment in a line: Cell attachment and spreading on fibronectin (control ligand), MDA-MB-231 cells. To be noted: MDA-MB-231, 30 μM, 100-fold greater than IC50. How it is done: as §1
FIG. 17—Human SSTN peptides inhibit αvβ3-mediated cell attachment and spreading on vitronectin. MDA-MB-231 human mammary carcinoma cells were allowed to attach and spread on either vitronectin (VN) or fibronectin (FN) during a 2 hr assay in the presence of 0, 0.1, 0.3, 0.5, 1.0 or 30 μM SSTN peptide. […] The two peptides tested are derived either from amino acids 88-121 (hSSTN 88-121) or 89-120 (hSSTN 89-120) of the human Sdc1 sequence. Adhesion to VN, but not FN, is mediated by the αvβ3 integrin on these cells and is disrupted by the human SSTN peptides. […]

Assay [3] has as its system human dermal microvascular endothelial cells (HMEC-1). The settings on record: HMEC-1, truncated peptides compared to SSTN82-130, FIG. 14. The procedure: FIGS. 6A-6H—Inhibition of B82L fibroblast and HMEC-1 cell attachment and spreading on VN by synstatin82-130. B82L fibroblasts, which rely on the αvβ5 integrin for attachment to VN, and human dermal microvascular endothelial cells, which rely on both the αvβ3 and αvβ5 integrins for attachment to VN, were plated in the absence of peptide (FIGS. 6A, 6E) or in the presence of 0.1 (FIGS. 6B, 6F), 0.3 (FIGS. 6C, 6G) or 1 μM (FIGS. 6D, 6H) synstatin82-130 for 2 hr and processed as described in FIG. 2.
FIGS. 10A-10D—Dependence of HMEC cell attachment and spreading on integrin activation by Sdc1 and its inhibition by SSTN. (FIG. 10A) HMECs were plated for 2 hr either on Sdc1-specific antibody B-B4 to engage Sdc1 or on VN (10 μg/ml coating concentration) to engage the αvβ3 and αvβ5 integrins. Blocking antibodies LM609 (10 μg/ml, specific for αvβ3) and P1F6 (10 μg/ml, specific for αvβ5), SSTN (0.5 μM) or recombinant mouse Sdc1 ectodomain (mS1ED, 5 μM) were added. The ligand mimetic antibody WOW1 was used to detect activated αvβ3 integrin on cells plated on B-B4. (FIG. 10B) HMECs were treated with siRNA oligo specific for human Sdc1 for 48 hr prior to plating on VN. Sdc1 expression was quantified by flow cytometry using human Sdc1-specific mAb B-B4 or a control mouse IgG. (FIG. 10C-10D) The percentage of cell attaching or attaching and spreading was quantified for HMECs, HAEC and MAECs plated on VN for 24 hr in the presence of mS1ED or SSTN, or after siRNA silencing of Sdc1 expression in the presence of mAb LM609 to block αvβ3 integrin, P1F6 to block αvβ5 integrin, or both antibodies.
FIG. 14—Activity of SSTN peptides. A diagram of SSTN82-130 used in our experiments is shown. The gray letters designate amino acids that are identical or highly conserved across species (mouse, human, rat, hamster). Shorter peptides have been tested using HMEC-1 endothelial cells for inhibition of […] mediated cell attachment and spreading in comparison to SSTN82-130.
as §2
Finally, the inventors have examined HMEC-1 cells, which are immortalized human dermal microvascular endothelial cells. Microvascular endothelial cells are regarded as being the main source of endothelial cells that carry out angiogenesis in vivo. The HMEC-1 cells grown in serum-containing culture medium express Sdc1 (as noted earlier) and also express active αvβ3 and αvβ5 integrins. […]

As for “hSSTN 88-121: human SSTN, amino acids 88-121 of the human Sdc1 sequence, SEQ ID NO:28 (ASTSTLPAGEGPKEGEAVVLPEVEPGLTAREQEA)”, the “attachment and spreading on VN” value in assay [1] is on record as “disrupted”. Besides, the “attachment and spreading on fibronectin (FN)” value in assay [2] was “lack of activity”. Take “SSTN88-121: truncated mouse SSTN peptide, amino acids 88-121 (FTSVLPAGEKPEEGEPVLHVEAEPGFTARDKEKE; UniProt P18828 88-121, looked up, fragment)”: the “activity in cell attachment and spreading assays on VN” value in assay [3] is listed as “active”. As for “hSSTN 89-120: human SSTN, amino acids 89-120 of the human Sdc1 sequence, SEQ ID NO:21 (STSTLPAGEGPKEGEAVVLPEVEPGLTAREQE)”, the “attachment and spreading on VN” value in assay [1] is given as “disrupted”. Besides, the “attachment and spreading on fibronectin (FN)” value in assay [2] was “lack of activity”.

These data come from patent US10864251B2, “Peptides of syndecan-1 for inhibiting angiogenesis” (Wisconsin Alumni Research Foundation, priority 2006, dated 2020).
